# According to US20070270362A1, “Methods and compositions for prevention or treatment of inflammatory-related diseases and disorders” (The University of Washington, priority 2006, published 2007):
# “Also recorded” adds a separate entry of the source.
# What was measured:
# BAEC or HUVEC monolayer = test: Lymphocyte adhesion to endothelial cells treated with retracting or apoptosis-inducing agents; type: cell-based; details: for lymphocyte adhesion to EC treated with the agent: BAEC or HUVEC
# Experimental: Cells. Jurkat cells and Ramos B cells were obtained from the American Type Culture Collection (ATCC) and were cultured in RPMI (Mediatech, Herndon Va.) supplemented with glutaMAX-1 (Invitrogen, Carlsbad Calif.), 1 mM sodium pyruvate (BioWhittaker, Walkersville Md.), nonessential amino acids (NEAA) (BioWhittaker) and 10% fetal bovine serum (FBS) (Hyclone, Logan Utah). Peripheral blood was obtained from healthy donors with informed consent according to protocols approved by the Human Subjects Review Committee of the University of Washington. PBMC were isolated by Ficoll-Hypaque (Pharmacia, Piscataway, N.J.) gradient centrifugation and washed with PBS. […] HUVEC were cultured on surfaces coated with 2% gelatin (Sigma). BAEC were a gift of Helene Sage (Hope Heart Institute, Seattle Wash.) and were grown in DMEM (Mediatech) supplemented with glutaMAX-1, sodium pyruvate and 8% FBS. […] Adhesion assays. Lymphocytes were labeled with 2.5 mM calcein-AM (Molecular Probes, Eugene, Oreg.) at room temperature for 20-40 min, washed, and resuspended in HBSS with calcium and magnesium (Mediatech) supplemented with 0.1% BSAnd 4 mM HEPES. Lymphocytes were incubated with inhibitors or function-blocking antibodies at 37° C. for 15-30 min and tested for LIA or phorbol ester-stimulated adhesion to EC or to EC matrix for 15-30 min at 37° C. Adhesion was measured by a Cytofluor Series 4000 fluorescence plate reader (PerSeptive Biosystems, Framingham, Mass.). Plates were scanned before and after washing for total and adherent cells, respectively. Statistical significance was deteremined by Student's t-Test. In some cases, EC were labeled with Cell Tracker Orange (Molecular Probes) per manufacturers instructions prior to adhesion. Cells were fixed after adhesion assays and adherent cells were directly visualized by fluorescent microscopy.
# [1] = tested on: Jurkat cells or PBMC adhering to cytochalasin D-retracted BAEC or BAEC-derived matrix; test: Ligand-induced adhesion (LIA) of unstimulated lymphocytes to retracted EC or EC matrix; type: cell-based, human; details: for adhesion to retracted BAEC or EC matrix (LIA): Jurkat or PBMC treated with 20 μM inhibitor for 30 min, adhesion 30 min; for ligand-induced cell adhesion: same dose (1 μM) treatment of Jurkat cells
# Experimental: Cells. Jurkat cells and Ramos B cells were obtained from the American Type Culture Collection (ATCC) and were cultured in RPMI (Mediatech, Herndon Va.) supplemented with glutaMAX-1 (Invitrogen, Carlsbad Calif.), 1 mM sodium pyruvate (BioWhittaker, Walkersville Md.), nonessential amino acids (NEAA) (BioWhittaker) and 10% fetal bovine serum (FBS) (Hyclone, Logan Utah). Peripheral blood was obtained from healthy donors with informed consent according to protocols approved by the Human Subjects Review Committee of the University of Washington. PBMC were isolated by Ficoll-Hypaque (Pharmacia, Piscataway, N.J.) gradient centrifugation and washed with PBS. HUVEC were isolated and cultured as previously described (Schwartz et al., J Immunol 162: 4842-8, 1999) and were grown in RPMI 1640 with supplemented with 2 mM glutamine, sodium pyruvate, NEAA, 10 mM HEPES, 100 U/ml penicillin, 100 U/ml streptomycin, 250 ng/ml fungizone (BioWhittaker), […] heparin (Sigma, St. Louis, Mo.), bovine hypothalamic extract (gift of E. Raines, University of Washington, Seattle, Wash.), and 10% bovine calf serum supplemented with iron (HyClone). HUVEC were cultured on surfaces coated with 2% gelatin (Sigma). BAEC were a gift of Helene Sage (Hope Heart Institute, Seattle Wash.) and were grown in DMEM (Mediatech) supplemented with glutaMAX-1, sodium pyruvate and 8% FBS. EC matrix was prepared by lysis of a confluent layer of EC with 20 mM NH4OH at 37° C. for 5 min (Kato and Gospodarowicz, J Cell Biol 100: 486-95, 1985) and blocked briefly with growth medium. Adhesion assays. Lymphocytes were labeled with 2.5 mM calcein-AM (Molecular Probes, Eugene, Oreg.) at room temperature for 20-40 min, washed, and resuspended in HBSS with calcium and magnesium (Mediatech) supplemented with 0.1% BSAnd 4 mM HEPES. Lymphocytes were incubated with inhibitors or function-blocking antibodies at 37° C. for 15-30 min and tested for LIA or phorbol ester-stimulated adhesion to EC or to EC matrix for 15-30 min at 37° C. Adhesion was measured by a Cytofluor Series 4000 fluorescence plate reader (PerSeptive Biosystems, Framingham, Mass.). Plates were scanned before and after washing for total and adherent cells, respectively. Statistical significance was deteremined by Student's t-Test. In some cases, EC were labeled with Cell Tracker Orange (Molecular Probes) per manufacturers instructions prior to adhesion. Cells were fixed after adhesion assays and adherent cells were directly visualized by fluorescent microscopy. Underlying fibronectin fibrils were visualized with polyclonal anti-bovine fibronectin antibody (Accurate), followed by Alexa-568 conjugated secondary antibody (Molecular Probes).
# Jurkat cells = details: 1 μM treatment of Jurkat cells; previously reported; cited from earlier work
# [2] = tested on: retinoblastoma protein (Rb), Cdk2 specific site (T821) and Cdk4 specific site (249/252); test: Western blot of Rb phosphorylation with phospho-specific antibodies; type: cell-based; details: Jurkat cells, 20 μM, 30 min
# Experimental: Western Blot Analysis. Equal numbers of Jurkat cells (1×10^6) were lysed in buffer containing 50 mM Hepes, pH 7.5, 10 mM NaCl, 5 mM MgCl2, 1 mM EGTA, 1 μg/ml leupeptin, 1 μg/ml aprotinin, 1% triton, and 10% glycerol and Complete Mini Protease Inhibitor Cocktail (Roche). Equal amounts of protein were separated by SDS-PAGE, transferred to Immobilon and blocked for 1 hour. Blots were incubated with primary antibody for 1 hour, followed by peroxidase-conjugated secondary antibody for 1 hour and then developed with Enhanced Chemiluminescence (ECL, Amersham). […] Anti-Cdk2 and anti-Cdk4 antibodies were obtained from eBioscience.
# [3] = tested on: PBMC migrating through confluent HUVEC monolayer; test: Transendothelial migration assay; type: cell-based, human
# Experimental: Flow cytometry. Integrin subunit expression levels were analyzed by a FACScan (Becton Dickinson) instrument. Analyzed cells were incubated in integrin antibodies for 30 min, followed by incubation with fluorescein-labeled secondary antibodies for 30 mins. Migration Assays. Calcein-labeled PBMC were treated with purvanalol for 15 min, then added to a confluent monolayer of HUVEC grown on collagen-coated transwell (3 micron pore size, Costar-Corning). PBMC were allowed to migrate for 4 hours at 37° C. Number of migrated cells in bottom chamber was counted. […] In addition, in some experiments, equal numbers of PBMC were allowed to adhere to HUVEC, then treated with purvanaol, to verify that differences in migration were not simply due to differences in initial adhesion. All assays were performed in triplicate. Integrity of the endothelial monolayer was verified by measurements of transendothelial resistance before and after migration assay.
molecule,measurement,setting,value
O=C(O)CN(CCN(CC(=O)O)CC(=O)O)CC(=O)O [EDTA],endothelial cell retraction,BAEC or HUVEC monolayer,caused endothelial cell retraction
COc1cccc(-c2cc(=O)c3ccccc3o2)c1N [PD98059],inhibition of LIA by inhibitors of other pathways,[1],did not inhibit LIA
C[C@@H](N)[C@H]1CC[C@H](C(=O)Nc2ccncc2)CC1 [Y-7632],inhibition of LIA by inhibitors of other pathways,[1],did not inhibit LIA
CC(C)[C@H](CO)Nc1nc(Nc2cc(N)cc(Cl)c2)c2ncn(C(C)C)c2n1 [aminopurvalanol A],adhesion to retracted BAEC or EC matrix (LIA),[1],block ligand-induced adhesion; also recorded: significantly reduced
COc1cc2c(c(OC)c1OC)-c1ccc(OC)c(=O)cc1[C@@H](NC(C)=O)CC2 [colchicine],endothelial cell retraction,BAEC or HUVEC monolayer,failed to induce retraction
same,lymphocyte adhesion to EC treated with the agent,BAEC or HUVEC monolayer,failed to produce comparable lymphocyte adhesion
C=C1[C@@H](C)[C@H]2[C@H](Cc3ccccc3)NC(=O)[C@]23[C@H](OC(C)=O)/C=C/[C@@](C)(O)C(=O)[C@@H](C)C/C=C/[C@H]3[C@@H]1O [cytochalasin D],phorbol ester-stimulated cell adhesion,Jurkat cells,Inhibited by cytochalasin D
same,ligand-induced cell adhesion,[1],Not affected by cytochalasin D
same,ligand-induced cell adhesion,[1]; listed as cytochalasin,no affect
same,endothelial cell retraction,BAEC or HUVEC monolayer,caused endothelial cell retraction
same,PBMC adhesion to treated EC versus untreated EC,BAEC or HUVEC monolayer; PBMC,5-6 fold
O=c1c(-c2ccc(O)cc2)coc2cc(O)cc(O)c12 [genistein],inhibition of LIA by inhibitors of other pathways,[1],did not inhibit LIA
COC(=O)Nc1nc2cc(C(=O)c3cccs3)ccc2[nH]1 [nocadozole],endothelial cell retraction,BAEC or HUVEC monolayer,failed to induce retraction
same,lymphocyte adhesion to EC treated with the agent,BAEC or HUVEC monolayer,failed to produce comparable lymphocyte adhesion
CC(=O)O[C@H]1C(=O)[C@@]2(C)[C@H]([C@H](OC(=O)c3ccccc3)[C@]3(O)C[C@H](OC(=O)[C@H](O)[C@@H](NC(=O)c4ccccc4)c4ccccc4)C(C)=C1C3(C)C)[C@]1(OC(C)=O)CO[C@@H]1C[C@@H]2O [paclitaxel],endothelial cell retraction,BAEC or HUVEC monolayer,failed to induce retraction
same,lymphocyte adhesion to EC treated with the agent,BAEC or HUVEC monolayer,failed to produce comparable lymphocyte adhesion
CC(C)[C@H](CO)Nc1nc(Nc2cccc(Cl)c2)c2ncn(C(C)C)c2n1 [purvalanol A],phosphorylation of Rb at Cdk2 site (T821) and Cdk4 site (249/252),[2],block Rb phosphorylation
same,initial adhesion of PBMC to confluent endothelial cells,[3],did not affect initial adhesion
same,PBMC migration through confluent endothelial monolayer,[3]; HUVEC on transwell,inhibited
same,adhesion to retracted BAEC or EC matrix (LIA),[1],block ligand-induced adhesion; also recorded: significantly reduced
CC[C@H](CO)Nc1nc(NCc2ccccc2)c2ncn(C(C)C)c2n1 [roscovitine],adhesion to retracted BAEC or EC matrix (LIA),[1],block ligand-induced adhesion; also recorded: significantly reduced
CN[C@@H]1C[C@H]2O[C@@](C)([C@@H]1OC)n1c3ccccc3c3c4c(c5c6ccccc6n2c5c31)C(=O)NC4 [staurosporine],endothelial cell retraction,BAEC or HUVEC monolayer,caused endothelial cell retraction
CC[C@]1(O)C[C@@H]2CN(CCc3c([nH]c4ccccc34)[C@@](C(=O)OC)(c3cc4c(cc3OC)N(C)[C@H]3[C@@](O)(C(=O)OC)[C@H](OC(C)=O)[C@]5(CC)C=CCN6CC[C@]43[C@@H]65)C2)C1 [vinblastine],endothelial cell retraction,BAEC or HUVEC monolayer,failed to induce retraction
same,lymphocyte adhesion to EC treated with the agent,BAEC or HUVEC monolayer,failed to produce comparable lymphocyte adhesion
Thrombin,endothelial cell retraction,BAEC or HUVEC monolayer,caused endothelial cell retraction
same,increase of Jurkat cell adhesion to treated BAEC,"BAEC or HUVEC monolayer; Jurkat cells, BAEC",4-5 fold
latrunculin,endothelial cell retraction,BAEC or HUVEC monolayer,caused endothelial cell retraction
